Results published in patent US20070275052A1, “Pharmaceutical compositions containing sterol inhibitors” (Glenmark Pharmaceuticals Limited, priority 2006, published 2007).

Assay: Initial experiments: drug release of ezetimibe having particle size about 25 microns
Type: physicochemical
Settings: ezetimibe particle size about 25 microns
Excerpt: The pharmaceutical compositions of present invention can be prepared with techniques well known in the art, preferably, direct compression, dry granulation and wet granulation.

O=C1[C@H](CC[C@H](O)c2ccc(F)cc2)[C@@H](c2ccc(O)cc2)N1c1ccc(F)cc1 [ezetimibe, Ezetimibe]
release of the drug: 40-50%
